Where two headings read alike, the source gives them in different places.
Molecular target: T1, JAK3 (Homo sapiens, UniProt P52333)
T1 construct: purchased Thermo fisher PV3855
Test: JAK3 biochemical assay (ADP-GLO Kinase Assay)
Details: for JAKs/HPK1 IC50 Ratio, B* / JAKs/HPK1 IC50 Ratio, N*: ratio of JAK3 IC50 to HPK1 IC50; for JAKs/HPK1 IC50 Ratio, B*: first testing facility; for JAKs/HPK1 IC50 Ratio, N*: second testing facility
Method in brief: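 Luminescent ADP-Glo readout after a 60 min, 25 °C reaction of JAK3 (0.78 ng) on Poly(E4Y1) (0.2 μg/μL) at 4 μM ATP, Tris pH 7.5 buffer with MgCl2, BSA and DTT. Compounds tested 10 μM down to 0.508 nM in 3-fold steps; % inhibition normalised to DMSO and reference-compound controls, IC50 from three-parameter fit.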

[1] = B*: testing performed in a first testing facility, read-out: JAK3 IC50 (nM) Relative, B*
[2] = N*: testing performed in a second testing facility, read-out: JAK3 IC50 (nM) Relative, N*

T1 sequence (P52333 781-1124 limits assumed): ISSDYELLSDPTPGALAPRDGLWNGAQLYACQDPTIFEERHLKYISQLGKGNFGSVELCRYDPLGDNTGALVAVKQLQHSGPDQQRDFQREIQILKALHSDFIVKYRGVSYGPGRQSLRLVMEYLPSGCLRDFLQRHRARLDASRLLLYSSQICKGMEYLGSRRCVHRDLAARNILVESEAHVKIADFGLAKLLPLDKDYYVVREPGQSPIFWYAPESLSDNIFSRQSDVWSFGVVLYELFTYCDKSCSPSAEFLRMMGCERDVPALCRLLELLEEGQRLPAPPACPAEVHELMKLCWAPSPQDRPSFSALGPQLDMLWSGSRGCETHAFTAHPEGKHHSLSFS

Question: Which IC50 [1] does the source give for `COc1cc2c(cc1Nc1ncc(Cl)c(-n3cc(P(C)(C)=O)c4ccccc43)n1)CN(C)CC2` [Example 1, (1-(5-Chloro-2-((6-methoxy-2-methyl-1,2,3,4-tetrahydroisoquinolin-7-yl)amino)pyrimidin-4-yl)-1H-indol-3-yl)dimethylphosphine oxide] here?
Answer: > 1000 nM

Question: What about the IC50 [2] of the same molecule?
Answer: > 1000 nM

Question: And the “JAKs/HPK1 IC50 Ratio, B*” value?
Answer: 285

Question: What about the “JAKs/HPK1 IC50 Ratio, N*” value of the same molecule?
Answer: >558

Question: How did the IC50 [1] turn out when `COc1nc2c(cc1Nc1ncc(Cl)c(N3CCc4ccccc43)n1)CN(C)CC2` [Example 19, N-(5-chloro-4-(indolin-1-yl)pyrimidin-2-yl)-2-methoxy-6-methyl-5,6,7,8-tetrahydro-1,6-naphthyridin-3-amine] was run?
Answer: 500 to 1000 nM

Question: And the IC50 [2]?
Answer: 100 to 500 nM

Question: Which IC50 [1] does the source give for `COc1cc2c(cc1Nc1ncc(Cl)c(N3CCc4cc(F)ccc43)n1)CN(C)CC2` [Example 20, N-(5-chloro-4-(5-fluoroindolin-1-yl)pyrimidin-2-yl)-6-methoxy-2-methyl-1,2,3,4-tetrahydroisoquinolin-7-amine] here?
Answer: 100 to 500 nM

Question: And the “JAKs/HPK1 IC50 Ratio, B*” value?
Answer: 88

Question: Which IC50 [1] does the source give for `COc1cc2c(cc1Nc1ncc(Cl)c(N3CCc4ccc(F)cc43)n1)CN(C)CC2` [Example 21, N-(5-chloro-4-(6-fluoroindolin-1-yl)pyrimidin-2-yl)-6-methoxy-2-methyl-1,2,3,4-tetrahydroisoquinolin-7-amine] here?
Answer: > 1000 nM

Question: What about the “JAKs/HPK1 IC50 Ratio, B*” value of the same molecule?
Answer: 280

Question: `COc1cc2c(cc1Nc1ncc(Cl)c(N3CCc4ccccc43)n1)CN(C(C)C)CC2` [Example 22, N-(5-chloro-4-(indolin-1-yl)pyrimidin-2-yl)-2-isopropyl-6-methoxy-1,2,3,4-tetrahydroisoquinolin-7-amine] was tested. Which IC50 [1] did it give?
Answer: > 1000 nM

Question: What about the “JAKs/HPK1 IC50 Ratio, B*” value of the same molecule?
Answer: 223

Question: For `COc1cc2c(cc1Nc1ncc(Cl)c(N3CCc4ccccc43)n1)CNCC2` [Example 23, N-(5-chloro-4-(indolin-1-yl)pyrimidin-2-yl)-6-methoxy-1,2,3,4-tetrahydroisoquinolin-7-amine], which IC50 [1] is on record?
Answer: 100 to 500 nM

Question: What about the “JAKs/HPK1 IC50 Ratio, B*” value of the same molecule?
Answer: 59

Question: Which results are given for `COc1cc2c(cc1Nc1ncc(Cl)c(-n3ncc4ccccc43)n1)CN(C)CC2` [Example 24, N-(5-Chloro-4-(1H-indazol-1-yl)pyrimidin-2-yl)-6-methoxy-2-methyl-1,2,3,4-tetrahydroisoquinolin-7-amine]?
Answer: IC50 [1]: > 1000 nM; JAKs/HPK1 IC50 Ratio, B*: 79

Question: What does the source list for `COc1cc2c(cc1Nc1ncc(Cl)c(N3CC(C)(C)c4ccccc43)n1)CN(C)CC2` [Example 25, N-(5-Chloro-4-(3,3-dimethylindolin-1-yl)pyrimidin-2-yl)-6-methoxy-2-methyl-1,2,3,4-tetrahydroisoquinolin-7-amine]?
Answer: IC50 [1]: 100 to 500 nM; JAKs/HPK1 IC50 Ratio, B*: 218

Question: How did the IC50 [1] turn out when `COc1nc2c(cc1Nc1ncc(Cl)c(N3CCc4ncccc43)n1)CN(C)CC2` [Example 29, N-(5-Chloro-4-(2,3-dihydro-1H-pyrrolo[3,2-b]pyridin-1-yl)pyrimidin-2-yl)-2-methoxy-6-methyl-5,6,7,8-tetrahydro-1,6-naphthyridin-3-amine] was run?
Answer: 500 to 1000 nM

Question: And the IC50 [2]?
Answer: 100 to 500 nM

Question: What about the “JAKs/HPK1 IC50 Ratio, B*” value of the same molecule?
Answer: 223

Question: And the “JAKs/HPK1 IC50 Ratio, N*” value?
Answer: 286

Question: For `COc1cc2c(cc1Nc1ncc(Cl)c(N3CC(C(=O)O)c4ccccc43)n1)CN(C)CC2` (stereo not shown) [Example 32, 1-(5-Chloro-2-((6-methoxy-2-methyl-1,2,3,4-tetrahydroisoquinolin-7-yl)amino)pyrimidin-4-yl)indoline-3-carboxylic acid], which IC50 [1] is on record?
Answer: ≤ 100 nM

Question: What about the “JAKs/HPK1 IC50 Ratio, B*” value of the same molecule?
Answer: 90

Question: What does the source list for `COc1cc2c(cc1Nc1ncc(Cl)c(N3CC(C(N)=O)c4ccccc43)n1)CN(C)CC2` (stereo not shown) [Example 33, 1-(5-Chloro-2-((6-methoxy-2-methyl-1,2,3,4-tetrahydroisoquinolin-7-yl)amino)pyrimidin-4-yl)indoline-3-carboxamide]?
Answer: IC50 [1]: ≤ 100 nM; JAKs/HPK1 IC50 Ratio, B*: 140

Question: `COc1cc2c(cc1Nc1ncc(Cl)c(-n3cc(C(N)=O)c4ccccc43)n1)CN(C)CC2` [Example 34] was tested. Which IC50 [1] did it give?
Answer: 500 to 1000 nM

Question: And the “JAKs/HPK1 IC50 Ratio, B*” value?
Answer: 101

Question: For `COc1cc2c(cc1Nc1ncc(Cl)c(-n3cc(C(=O)O)c4ccccc43)n1)CN(C)CC2` [Example 35], which IC50 [1] is on record?
Answer: 100 to 500 nM

Question: And the “JAKs/HPK1 IC50 Ratio, B*” value?
Answer: 78

Question: With `COc1cc2c(cc1Nc1ncc3ccn(-c4ccccc4)c3n1)CN(C)CC2` [Example 36, 6-methoxy-2-methyl-N-(7-phenyl-7H-pyrrolo[2,3-d]pyrimidin-2-yl)-1,2,3,4-tetrahydroisoquinolin-7-amine] as the molecule, how does the IC50 [2] read?
Answer: > 1000 nM

Question: What about the “JAKs/HPK1 IC50 Ratio, N*” value of the same molecule?
Answer: 287

Question: `COc1cc2c(cc1Nc1ncc3ccn(-c4ccccn4)c3n1)CN(C)CC2` [Example 37, 6-Methoxy-2-methyl-N-(7-(pyridin-2-yl)-7H-pyrrolo[2,3-d]pyrimidin-2-yl)-1,2,3,4-tetrahydroisoquinolin-7-amine] was tested. Which IC50 [2] did it give?
Answer: > 1000 nM

Question: And the “JAKs/HPK1 IC50 Ratio, N*” value?
Answer: 608
